The values below come from PMC8876412 (Viruses, 2022).

Series [1] concerns pp28-luciferase recombinant Towne CMV. Briefly: microbe, parasite or virus in culture. As to conditions: Human betaherpesvirus 5, read-out: EC50 pp28-Luciferase.
The nature of series [2]: MTT toxicity assay in non-infected cells. Format: cell-based. As to conditions: human, non-infected HFF cells, non-infected HFFs. (Formazan colour is commonly taken as a measure of viable cells.)
Series [3] has as its system CMV TB40. Briefly: microbe, parasite or virus in culture. Format: cell-based, human cytomegalovirus. The conditions noted are these: Human betaherpesvirus 5, 168 h, read-out: EC50 TB40.
In series [4] the test system is pp28-luciferase recombinant Towne CMV. The conditions noted are these: CC50 in non-infected HFFs versus anti-CMV EC50.
Series [5] relates to CMV. More on the design: method as in ref 23 = [23]. The conditions noted are these: cited from earlier work.
In series [6] the test system is HSV2. Briefly: HSV2 plaque assay in Vero cells. Format: cell-based, Human Herpesvirus 2. As to conditions: 5 µM, positive control.
Series [7] relates to CMV TB40 (US17 DNA). In words: Viral DNA in cells and supernatants by US17 real-time PCR. Format: cell-based, human cytomegalovirus. The conditions noted are these: for cellular viral loads (viral DNA replication in cells): 72, 96, 120 h. (In qPCR the cycle at which signal appears reflects the starting amount.)
The subject of series [8] is HSV1. In words: HSV1 plaque assay in Vero cells. As to conditions: 5 µM, positive control. It counts as cell-based, Human Herpesvirus 1.
The test system of series [9] is MCMV Smith strain. Further details: method as in ref 24 = [24]. As to conditions: cited from earlier work.
Series [10] deals with CMV TB40. Further details: method as in ref 24 = [24]. The conditions noted are these: cited from earlier work.
Series [11] has as its system HSV2. More on the design: method as in ref 24 = [24]. The conditions noted are these: cited from earlier work.
The subject of series [12] is HSV1. More on the design: method as in ref 24 = [24]. The conditions noted are these: cited from earlier work.
The subject of series [13] is CMV TB40. Briefly: Virus yield: supernatants of TB40-infected HFFs titered by plaque assay. Format: cell-based, human cytomegalovirus. The conditions noted are these: supernatants at 72, 96, 120 h; for reduction in viral titer (virus yield) of supernatants: 3 µM.
The subject of series [14] is MCMV Smith strain. Briefly: microbe, parasite or virus in culture. Format: cell-based. As to conditions: Mouse cytomegalovirus, Fibroblast, read-out: EC50 MCMV.
Series [15] has as its system Western Equine Encephalitis Virus (WEEV). The conditions noted are these: cultured human neuronal cells; cited from earlier work.

As a reminder, the EC50 is the concentration giving half of the maximal effect. A word on the CC50: it is the concentration that lowers cell viability or growth by half. Lower therefore signals greater toxicity to the cells.

Entries after “also recorded” stand apart in the source; their conditions may differ.

Regarding `O=C(NCCc1ccncc1)C1CCN(C(=O)c2cc3sccc3n2Cc2ccc(Cl)cc2)CC1` [Compound 9], the EC50 in series [1] is 300 ± 50 nM; in [3], 350 ± 70 nM. The molecule also came in with a CC50 at 72 h in series [2] greater than 500000 nM. For the same molecule, the selectivity index in series [4] was greater than 1500.
Consider `O=C(NCc1ccncc1)C1CCN(C(=O)c2cccn2Cc2ccc(Cl)cc2)CC1` [Compound 12], for which the EC50 in series [1] was greater than 30000 nM.
Regarding `O=C(NCCc1ccccn1)C1CCN(C(=O)c2cccn2Cc2ccc(Cl)cc2)CC1` [Compound 5], the concentration giving a half-maximal response (EC50) in series [1] is greater than 30000 nM.
Turning to `CC(C)Nc1nc2cc(Cl)c(Cl)cc2n1[C@H]1O[C@@H](CO)[C@H](O)[C@@H]1O` [maribavir, Maribavir], the response in series [5] (across all doses) is ~ 65%. The CMV recurrences in series [5] (of the participants) is 35%.
Regarding `Nc1nc(O)c2ncn(COC(CO)CO)c2n1` [GCV, ganciclovir, reference compound], in [6], the “inhibition of HSV2” value is on record as “complete inhibition”. Further, in series [7] (5 µM), the “viral DNA in supernatants” value was “reduced DNA replication” and the “viral DNA replication in cells” value is on record as “reduced DNA replication”. Besides, the “inhibition of HSV1” value in [8] is reported as “complete inhibition”.
Take `O=C(O)C1CCN(C(=O)c2cccn2Cc2ccc(Cl)cc2)CC1` [Compound 13]: the 50% effective concentration (EC50) in [1] is greater than 30000 nM.
On the same count and under the same terms, the figure for `CC(C)NC(=O)C1CCN(C(=O)c2cc3ccccc3n2Cc2ccc(Cl)cc2)CC1` [Compound 3] is greater than 30000 nM.
In the case of `CC(C)NC(=O)C1CCN(C(=O)c2cc3sccc3n2Cc2ccc(Cl)cc2)CC1` [Compound 1], the “in vitro activity against mouse CMV” value in series [9] is listed as “low µM concentrations”. The “in vitro activity against TB40” value in [10] was “low µM concentrations”. The EC50 in [1] was 1700 ± 600 nM; in series [3], 1990 ± 150 nM. For the same molecule, the “activity against HSV2” value in [11] was “no activity”. In [2], this molecule returned a CC50 at 72 h greater than 200000 nM. Also, the “cellular viral loads (viral DNA replication in cells)” value (“cellular viral loads” below) in series [7] (3 µM) was “did not reduce”. In [12], the “activity against HSV1” value is recorded as “no activity”.
With `CCOC(=O)C1CCN(C(=O)c2cccn2Cc2ccc(Cl)cc2)CC1` [Compound 14], in series [1], the EC50 is greater than 30000 nM.
As to `O=C(NCc1cccnc1)C1CCN(C(=O)c2cccn2Cc2ccc(Cl)cc2)CC1` [Compound 11], the EC50 in series [1] is greater than 30000 nM.
Consider `O=C(NCCc1ccncc1)C1CCN(C(=O)c2cc3ccccc3n2Cc2ccc(Cl)cc2)CC1` [Compound 8], for which the “reduction in viral titer (virus yield) of supernatants” value in series [13] was “higher than with 1 and overall similar to GCV”. Also, the results for the EC50 in [1], in series [14] and in [3] were 280 ± 60 nM, 730 ± 320 nM and 420 ± 70 nM, respectively. In addition, the CC50 at 72 h in series [2] was greater than 500000 nM. In addition, the “viral loads in supernatants” value in series [7] (3 µM, 72, 96, 120 hpi) is “decreased viral loads at 120 hpi”. Besides, the “cellular viral loads” value in [7] (3 µM) is given as “did not reduce”. In addition, in series [4], the selectivity index is recorded as greater than 1500.
For the molecule `O=C(NCc1ccccn1)C1CCN(C(=O)c2cccn2Cc2ccc(Cl)cc2)CC1` [Compound 10], in series [1], the concentration for a half-maximal effect (EC50) was greater than 30000 nM.
Regarding `CC(C)NC(=O)C1CCN(C(=O)c2cccn2Cc2ccc(Cl)cc2)CC1` [Compound 4], in series [1], the EC50 is greater than 30000 nM.
Turning to `CC(C)NC(=O)C1CCCN(C(=O)c2cc3sccc3n2Cc2ccc(Cl)cc2)C1` (centres unmarked) [Compound 2], the EC50 in [1] is greater than 30000 nM.
Turning to `O=C(NCCc1ccncc1)C1CCN(C(=O)c2cccn2Cc2ccc(Cl)cc2)CC1` [Compound 7], the “reduction in viral titer (virus yield) of supernatants” value in [13] was “reduced virus yield at all late time points; also recorded: higher than with 1 and overall similar to GCV”. Moreover, the EC50 in series [1] came out at 210 ± 60 nM; in series [14], 600 ± 340 nM; in series [3] it was 550 ± 60 nM. Moreover, the CC50 at 72 h in series [2] was greater than 500000 nM. Further, in series [7] (3 µM, 72, 96, 120 hpi), the “viral loads in supernatants” value is given as “decreased the viral loads in supernatants at all time points”. For the same molecule, the “cellular viral loads” value in series [7] (3 µM) is on record as “did not reduce”. Further, the selectivity index in series [4] is given as greater than 1500.
For the molecule `O=C(NCCc1ccncc1)C1CCN(C(=O)c2cc3ccccc3n2Cc2ccc(Cl)cc2)CC1` [CCG205432], the “inhibition of infectious virus” value in [15] was “inhibited the infectious virus”.
For the molecule `O=C(NCCc1cccnc1)C1CCN(C(=O)c2cccn2Cc2ccc(Cl)cc2)CC1` [Compound 6], in [1], the EC50 is greater than 30000 nM.
As for `COc1cccc(N2CCN(C3=Nc4c(F)cccc4[C@H](CC(=O)O)N3c3cc(C(F)(F)F)ccc3OC)CC2)c1` [Letermovir, reference compound], the “reduction in viral progeny of supernatants” value in series [13] (10 nM) was “strongest reduction in viral progeny at all time points”. For the same molecule, the “viral loads in supernatants” value in [7] (10 nM) is given as “reduced viral loads in supernatants”.
